# Data: patent US20230117034A1, “PYRAZOLOTRIAZINES” (Bayer Aktiengesellschaft, priority 2019, published 2023)
# Legend:
# [1] = molecular target: T1, CDK2/CycE (Homo sapiens, UniProt P24941); assay: CDK2/CycE kinase assay (TR-FRET, 2 mM ATP); format: biochemical; conditions: 2 mM ATP (high ATP); median; read-out: CDK2/CyclinE, 2 mM ATP (high ATP), IC50 (median)
# T1 construct: purchased ProQinase GmbH (Freiburg, Germany); host or cells: insect cells (Sf9)
# Method in brief: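 Biotin-peptide phosphorylation (0.75 µM substrate, 2 mM ATP final, 25 min, 22 °C) by Sf9-expressed GST-CDK2/GST-CycE, after a 15-min compound pre-binding step. Inhibition scaled between enzyme-free (100%) and uninhibited (0%) wells.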
# [2] = molecular target: T2, CDK12 (nuclear staining in CAL-120 cells) (Homo sapiens, UniProt Q9NYV4); assay: CDK12 nuclear protein level: immunofluorescence/high content analysis (CAL-120); format: cell-based; conditions: for DC50: CAL-120 cells, 24 h, immunofluorescence, 50% reduction of nuclear CDK12 staining intensity, median, read-out: CDK12 degradation IF, DC50- [mol/l] (median); for (IC50 CDK12 high ATP) to (Degradation DC50 CDK12) ratio: ratio of IC50 CDK12 high ATP kinase assay to DC50 CDK12 degradation (IF, CAL-120)
# T2 construct: endogenous in cells; host or cells: CAL-120 human breast cancer cells (DSMZ ACC 459)
# Method in brief: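 DC50 is the degrader concentration that halves nuclear CDK12 immunofluorescence relative to controls, measured by high-content imaging. CAL-120 cells were exposed to compound for 24 h at 37 °C before PFA fixation, and signal was normalized to DMSO and control wells.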
# T2 sequence (Q9NYV4 whole entry): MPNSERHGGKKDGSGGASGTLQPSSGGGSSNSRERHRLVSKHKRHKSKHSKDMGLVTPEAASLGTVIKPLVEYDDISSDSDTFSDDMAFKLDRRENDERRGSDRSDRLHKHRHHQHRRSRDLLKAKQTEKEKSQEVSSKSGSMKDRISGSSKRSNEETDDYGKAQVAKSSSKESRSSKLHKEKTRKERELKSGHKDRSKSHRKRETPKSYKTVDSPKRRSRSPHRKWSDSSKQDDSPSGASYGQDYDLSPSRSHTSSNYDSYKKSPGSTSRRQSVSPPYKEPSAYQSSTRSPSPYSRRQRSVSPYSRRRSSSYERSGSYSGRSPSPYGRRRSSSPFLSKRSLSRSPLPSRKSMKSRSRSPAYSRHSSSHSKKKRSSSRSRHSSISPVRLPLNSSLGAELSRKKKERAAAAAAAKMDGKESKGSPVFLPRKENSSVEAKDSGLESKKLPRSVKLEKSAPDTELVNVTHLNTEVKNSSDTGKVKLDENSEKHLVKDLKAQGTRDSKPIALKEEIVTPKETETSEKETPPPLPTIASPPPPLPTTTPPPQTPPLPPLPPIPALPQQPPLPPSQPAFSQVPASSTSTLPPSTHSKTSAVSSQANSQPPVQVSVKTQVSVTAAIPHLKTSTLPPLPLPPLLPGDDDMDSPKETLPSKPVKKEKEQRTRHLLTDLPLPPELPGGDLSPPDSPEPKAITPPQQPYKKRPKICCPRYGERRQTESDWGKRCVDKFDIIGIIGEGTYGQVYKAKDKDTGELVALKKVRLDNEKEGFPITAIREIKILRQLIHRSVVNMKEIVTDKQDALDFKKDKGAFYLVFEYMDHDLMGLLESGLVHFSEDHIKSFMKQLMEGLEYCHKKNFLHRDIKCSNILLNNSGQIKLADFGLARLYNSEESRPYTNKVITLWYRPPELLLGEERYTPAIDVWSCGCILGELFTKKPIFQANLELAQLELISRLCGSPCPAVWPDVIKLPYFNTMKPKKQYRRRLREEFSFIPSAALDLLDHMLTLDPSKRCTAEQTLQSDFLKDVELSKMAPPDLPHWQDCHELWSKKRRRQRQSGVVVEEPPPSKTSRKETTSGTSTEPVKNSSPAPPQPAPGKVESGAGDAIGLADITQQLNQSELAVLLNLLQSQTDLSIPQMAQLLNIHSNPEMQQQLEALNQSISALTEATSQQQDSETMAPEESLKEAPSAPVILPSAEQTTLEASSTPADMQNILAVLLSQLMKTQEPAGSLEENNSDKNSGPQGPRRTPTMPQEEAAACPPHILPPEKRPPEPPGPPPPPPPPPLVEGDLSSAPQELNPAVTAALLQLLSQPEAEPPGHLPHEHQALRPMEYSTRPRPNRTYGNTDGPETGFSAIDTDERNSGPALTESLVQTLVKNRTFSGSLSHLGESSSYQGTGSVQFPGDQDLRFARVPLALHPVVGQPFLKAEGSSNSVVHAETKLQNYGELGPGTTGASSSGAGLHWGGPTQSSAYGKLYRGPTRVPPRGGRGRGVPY
# T2 sequence (O75909 whole entry partner): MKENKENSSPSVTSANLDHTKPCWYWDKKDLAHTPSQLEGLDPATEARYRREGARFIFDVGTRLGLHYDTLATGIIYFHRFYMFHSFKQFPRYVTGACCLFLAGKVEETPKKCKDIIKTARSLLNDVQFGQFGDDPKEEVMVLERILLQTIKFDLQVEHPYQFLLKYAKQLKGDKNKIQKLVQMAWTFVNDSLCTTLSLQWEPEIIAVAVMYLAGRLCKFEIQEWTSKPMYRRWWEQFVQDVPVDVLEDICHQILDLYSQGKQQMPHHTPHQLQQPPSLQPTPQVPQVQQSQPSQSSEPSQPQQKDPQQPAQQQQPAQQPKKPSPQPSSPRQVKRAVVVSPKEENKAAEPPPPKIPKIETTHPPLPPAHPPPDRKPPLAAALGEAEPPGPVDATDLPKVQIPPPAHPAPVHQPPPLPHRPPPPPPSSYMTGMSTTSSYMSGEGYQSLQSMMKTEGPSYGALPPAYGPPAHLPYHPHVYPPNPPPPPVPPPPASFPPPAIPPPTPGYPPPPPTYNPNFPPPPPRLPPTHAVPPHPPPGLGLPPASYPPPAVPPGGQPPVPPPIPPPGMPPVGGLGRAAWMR
compound,measurement,setting,value
"Fc1ccccc1-c1cnn2c(NCc3nc4ccccc4[nH]3)nc(N3CCOCC3)nc12 [Example 95, N-[(1H-benzimidazol-2-yl)methyl]-8-(2-fluorophenyl)-2-(morpholin-4-yl)pyrazolo[1,5-a][1,3,5]triazin-4-amine]",IC50,[1],> 20 µM
same,DC50,[2],34.3 nM
same,(IC50 CDK12 high ATP) to (Degradation DC50 CDK12) ratio,[2],>584
"Brc1cnn2c(NCc3nnc(-c4ccccc4)[nH]3)nc(N3C[C@H]4C[C@@H]3CO4)nc12 [Example 118, 8-bromo-2-[(1R,4R)-2-oxa-5-azabicyclo[2.2.1]heptan-5-yl]-N-[(5-phenyl-4H-1,2,4-triazol-3-yl)methyl]pyrazolo[1,5-a][1,3,5]triazin-4-amine]",IC50,[1],3.39 µM
same,DC50,[2],4.85 nM
same,(IC50 CDK12 high ATP) to (Degradation DC50 CDK12) ratio,[2],1176
"CC(C)c1cnn2c(NCc3nc4ccccc4[nH]3)nc(N3CCOC[C@@H]3C)nc12 [Example 6, N-[(1H-benzimidazol-2-yl)methyl]-2-[(3S)-3-methylmorpholin-4-yl]-8-(propan-2-yl)pyrazolo[1,5-a][1,3,5]triazin-4-amine]",IC50,[1],2.01 µM
same,DC50,[2],3.32 nM
same,(IC50 CDK12 high ATP) to (Degradation DC50 CDK12) ratio,[2],537
"Fc1cc(F)cc(-c2nnc(CNc3nc(N4CCOCC4)nc4c(Br)cnn34)[nH]2)c1 [Example 105, 8-bromo-N-{[5-(3,5-difluorophenyl)-4H-1,2,4-triazol-3-yl]methyl}-2-(morpholin-4-yl)pyrazolo[1,5-a][1,3,5]triazin-4-amine]",IC50,[1],0.826 µM
same,DC50,[2],2.49 nM
same,(IC50 CDK12 high ATP) to (Degradation DC50 CDK12) ratio,[2],429
"OCC1CCN1c1nc(NCc2nc3ccccc3[nH]2)n2ncc(Br)c2n1 (stereo not drawn) [Example 147, [1-[4-(1H-benzimidazol-2-ylmethylamino)-8-bromo-pyrazolo[1,5-a][1,3,5]triazin-2-yl]azetidin-2-yl]methanol]",IC50,[1],3.12 µM
same,DC50,[2],13.9 nM
same,(IC50 CDK12 high ATP) to (Degradation DC50 CDK12) ratio,[2],359
"Clc1ccccc1-c1cnc(CNc2nc(N3CCOCC3)nc3c(Br)cnn23)[nH]1 [Example 96, 8-bromo-N-{[5-(2-chlorophenyl)-1H-imidazol-2-yl]methyl}-2-(morpholin-4-yl)pyrazolo[1,5-a][1,3,5]triazin-4-amine]",IC50,[1],1.78 µM
same,DC50,[2],5.73 nM
same,(IC50 CDK12 high ATP) to (Degradation DC50 CDK12) ratio,[2],812
"Brc1cnn2c(NCc3nc4ccccc4[nH]3)nc(N3C[C@H]4C[C@@H]3CO4)nc12 [Example 102, N-[(1H-benzimidazol-2-yl)methyl]-8-bromo-2-[(1R,4R)-2-oxa-5-azabicyclo[2.2.1]heptan-5-yl]pyrazolo[1,5-a][1,3,5]triazin-4-amine]",IC50,[1],2.42 µM
same,DC50,[2],1.41 nM
same,(IC50 CDK12 high ATP) to (Degradation DC50 CDK12) ratio,[2],4897
"Brc1cnn2c(NCc3nc4ccccc4[nH]3)nc(N3CCOCC3)nc12 [Example 4, N-[(1H-benzimidazol-2-yl)methyl]-8-bromo-2-(morpholin-4-yl)pyrazolo[1,5-a][1,3,5]triazin-4-amine]",IC50,[1],2.28 µM
same,DC50,[2],1.07 nM
same,(IC50 CDK12 high ATP) to (Degradation DC50 CDK12) ratio,[2],1628
"Brc1cnn2c(NCc3nc4ccccc4[nH]3)nc(N3CCOCC3C3CC3)nc12 (stereo not drawn) [Example 117, N-(1H-benzimidazol-2-ylmethyl)-8-bromo-2-(3-cyclopropylmorpholin-4-yl)pyrazolo[1,5-a][1,3,5]triazin-4-amine]",IC50,[1],4.66 µM
same,DC50,[2],3.77 nM
same,(IC50 CDK12 high ATP) to (Degradation DC50 CDK12) ratio,[2],1278
"CN1CCN(c2nc(NCc3nc4cc(F)ccc4[nH]3)n3ncc(C4CC4)c3n2)CC1 [Example 164, 8-cyclopropyl-N-[(5-fluoro-1H-benzimidazol-2-yl)methyl]-2-(4-methylpiperazin-1-yl)pyrazolo[1,5-a][1,3,5]triazin-4-amine]",IC50,[1],> 20 µM
same,DC50,[2],0.99 nM
same,(IC50 CDK12 high ATP) to (Degradation DC50 CDK12) ratio,[2],>20194
"C[C@@H]1CN(c2nc(NCc3nnc(-c4ccccc4)[nH]3)n3ncc(Br)c3n2)C[C@H](C)N1 [Example 127, 8-bromo-2-[(3R,5S)-3,5-dimethylpiperazin-1-yl]-N-[(5-phenyl-4H-1,2,4-triazol-3-yl)methyl]pyrazolo[1,5-a][1,3,5]triazin-4-amine]",IC50,[1],> 20 µM
same,DC50,[2],5.1 nM
same,(IC50 CDK12 high ATP) to (Degradation DC50 CDK12) ratio,[2],1905
"CN1CCN(c2nc(NCc3nnc(-c4ccccc4)[nH]3)n3ncc(Br)c3n2)CC1=O [Example 121, 4-(8-bromo-4-{[(5-phenyl-4H-1,2,4-triazol-3-yl)methyl]amino}pyrazolo[1,5-a][1,3,5]triazin-2-yl)-1-methylpiperazin-2-one]",IC50,[1],2.2 µM
same,DC50,[2],43.5 nM
same,(IC50 CDK12 high ATP) to (Degradation DC50 CDK12) ratio,[2],172
"C[C@@H]1CN(c2nc(NCc3nc4cc(F)ccc4[nH]3)n3ncc(Br)c3n2)C[C@H](C)O1 [Example 110, 8-bromo-2-[(2R,6S)-2,6-dimethylmorpholin-4-yl]-N-[(5-fluoro-1H-benzimidazol-2-yl)methyl]pyrazolo[1,5-a][1,3,5]triazin-4-amine]",IC50,[1],8.21 µM
same,DC50,[2],1.03 nM
same,(IC50 CDK12 high ATP) to (Degradation DC50 CDK12) ratio,[2],394
"CC(C)c1cnn2c(NCc3nc4ccccc4[nH]3)nc(NCC(C)(C)O)nc12 [Example 10, 1-{[4-{[(1H-benzimidazol-2-yl)methyl]amino}-8-(propan-2-yl)pyrazolo[1,5-a][1,3,5]triazin-2-yl]amino}-2-methylpropan-2-ol]",IC50,[1],0.874 µM
same,DC50,[2],6.85 nM
same,(IC50 CDK12 high ATP) to (Degradation DC50 CDK12) ratio,[2],1277
"Brc1cnn2c(NCc3nc4ccccc4[nH]3)nc(N3C[C@@H]4C[C@H]3CO4)nc12 [Example 103, N-[(1H-benzimidazol-2-yl)methyl]-8-bromo-2-[(1S,4S)-2-oxa-5-azabicyclo[2.2.1]heptan-5-yl]pyrazolo[1,5-a][1,3,5]triazin-4-amine]",IC50,[1],9.05 µM
same,DC50,[2],5.36 nM
same,(IC50 CDK12 high ATP) to (Degradation DC50 CDK12) ratio,[2],1914
"COc1ccc2[nH]c(CNc3nc(N4C[C@@H](C)O[C@@H](C)C4)nc4c(Br)cnn34)nc2c1 [Example 124, 8-bromo-2-[(2R, 6S)-2,6-dimethylmorpholin-4-yl]-N-[(5-methoxy-1H-benzimidazol-2-yl)methyl]pyrazolo[1,5-a][1,3,5]triazin-4-amine]",IC50,[1],8.97 µM
same,DC50,[2],0.768 nM
same,(IC50 CDK12 high ATP) to (Degradation DC50 CDK12) ratio,[2],636
"C[C@@H]1CN(c2nc(NCc3nnc(-c4ccccc4)[nH]3)n3ncc(Br)c3n2)CCN1C.O=CO [Example 130, 8-bromo-2-[(3R)-3,4-dimethylpiperazin-1-yl]-N-[(5-phenyl-4H-1,2,4-triazol-3-yl)methyl]pyrazolo[1,5-a][1,3,5]triazin-4-amine formate]",IC50,[1],8.15 µM
same,DC50,[2],3.31 nM
same,(IC50 CDK12 high ATP) to (Degradation DC50 CDK12) ratio,[2],2547
"CN1CCN(c2nc(NCc3nc4ccccc4[nH]3)n3ncc(Br)c3n2)CC1=O [Example 131, 4-(4-{[(1H-benzimidazol-2-yl)methyl]amino}-8-bromopyrazolo[1,5-a][1,3,5]triazin-2-yl)-1-methylpiperazin-2-one]",IC50,[1],> 20 µM
same,DC50,[2],122 nM
same,(IC50 CDK12 high ATP) to (Degradation DC50 CDK12) ratio,[2],91
"CN1CCN(c2nc(NCc3nc4c(F)c(F)ccc4[nH]3)n3ncc(C4CC4)c3n2)CC1 [Example 159, 8-cyclopropyl-N-[(4,5-difluoro-1H-benzimidazol-2-yl)methyl]-2-(4-methylpiperazin-1-yl)pyrazolo[1,5-a][1,3,5]triazin-4-amine]",IC50,[1],> 20 µM
same,DC50,[2],0.521 nM
same,(IC50 CDK12 high ATP) to (Degradation DC50 CDK12) ratio,[2],18457
"NCCc1ccc2[nH]c(CNc3nc(N4CCOCC4)nc4c(Br)cnn34)nc2c1.O=CO [Example 113, formic acid-N-{[5-(2-aminoethyl)-1H-benzimidazol-2-yl]methyl}-8-bromo-2-(morpholin-4-yl)pyrazolo[1,5-a][1,3,5]triazin-4-amine (1/1)]",IC50,[1],1.2 µM
same,DC50,[2],8.64 nM
same,(IC50 CDK12 high ATP) to (Degradation DC50 CDK12) ratio,[2],197
"CN1CCN(c2nc(NCc3nc4c(F)cccc4[nH]3)n3ncc(C4CC4)c3n2)CC1 [Example 165, 8-cyclopropyl-N-[(4-fluoro-1H-benzimidazol-2-yl)methyl]-2-(4-methylpiperazin-1-yl)pyrazolo[1,5-a][1,3,5]triazin-4-amine]",IC50,[1],> 20 µM
same,DC50,[2],0.405 nM
same,(IC50 CDK12 high ATP) to (Degradation DC50 CDK12) ratio,[2],25224
"c1ccc(-c2cnn3c(NCc4nc5ccccc5[nH]4)nc(N4CCOCC4)nc23)cc1 [Example 104, N-[(1H-benzimidazol-2-yl)methyl]-2-(morpholin-4-yl)-8-phenylpyrazolo[1,5-a][1,3,5]triazin-4-amine]",IC50,[1],> 20 µM
same,DC50,[2],15.7 nM
same,(IC50 CDK12 high ATP) to (Degradation DC50 CDK12) ratio,[2],>1272
"C[C@H]1CN(c2nc(NCc3nc4ccccc4[nH]3)n3ncc(Br)c3n2)CCN1C [Example 132, N-[(1H-benzimidazol-2-yl)methyl]-8-bromo-2-[(3S)-3,4-dimethylpiperazin-1-yl]pyrazolo[1,5-a][1,3,5]triazin-4-amine]",IC50,[1],7.43 µM
same,DC50,[2],0.922 nM
same,(IC50 CDK12 high ATP) to (Degradation DC50 CDK12) ratio,[2],>20812
"CC1CN(C)CCN1c1nc(NCc2nc3ccccc3[nH]2)n2ncc(Br)c2n1 (stereo not drawn) [Example 156, N-(1H-benzimidazol-2-ylmethyl)-8-bromo-2-(2,4-dimethylpiperazin-1-yl)pyrazolo[1,5-a][1,3,5]triazin-4-amine]",IC50,[1],3.48 µM
same,DC50,[2],1.06 nM
same,(IC50 CDK12 high ATP) to (Degradation DC50 CDK12) ratio,[2],8849
